The text below walks through data of patent US20070161592A1, “Method of treating fear” (priority 2005, published 2007).

Holding throughout (type): cell-based, mouse
The subject of data set [1] is pyramidal neurons in layer II/III of ACC slices. The experiment in a line: LTP induced by pairing training, whole-cell patch-clamp recordings in ACC slices. As to conditions: for effect on LTP induced by pairing training: FIG. 3. On the procedure: Experiments were performed in a recording chamber on the stage of an Axioskop 2FS microscope with infrared DIC optics for visualizing whole-cell patch clamp recordings. EPSCs were recorded from layer II-III neurons using an Axon 200B amplifier (Axon Instruments, CA) and stimulations were delivered using a bipolar tungsten stimulating electrode placed in layer V of the ACC. In hippocampal slices, EPSCs were evoked by stimulating the Schaffer collateral-commissural pathway. EPSCs were induced by repetitive stimulations at 0.02 Hz and neurons were voltage clamped at −70 mV. […] The first protocol involved paired presynaptic 80 pulses at 2 Hz with postsynaptic depolarization at +30 mV (referred to as pairing training). The second involved paired 3 presynaptic stimuli that caused 3 EPSPs (10 ms ahead) with 3 postsynaptic APs at 30 Hz, paired 15 times every 5 s (named as EPSPs-APs protocol). The third involved theta-burst stimulation (5 trains of burst with 4 pulses at 100 Hz, at 200 ms interval; repeated 4 times at intervals of 10 s; named as TBS). The NMDAR-mediated component of EPSCs was pharmacologically isolated in Mg^2+-free ACSF containing: CNQX (20 μM), glycine (1 μM) and picrotoxin (100 μM). […] Neurons were voltage clamped at −60 mV and NMDARs-mediated EPSCs were evoked at 0.05 Hz. Picrotoxin (100 μM) was always present to block GABAA receptor-mediated inhibitory synaptic currents. The access resistance was 15-30 MΩ and was monitored throughout the experiment. […] Results are expressed as means±SEM. Statistical comparisons were performed using the Student t-test.
Whole-cell patch-clamp recordings were conducted in visually identified pyramidal neurons in layer II/III of ACC slices. Pyramidal neurons were identified by injecting depolarized currents into neurons to induce action potentials. […] Pyramidal neurons were also identified based on the pyramid shape of their somata by putting Lucifer yellow into the intracellular solution (FIG. 1A).

In the next data set the test system is NR2B-mediated NMDA EPSCs. Kind of data set: NR2B-mediated NMDA EPSCs in neurons from siRNA electroporated ACC slices. To be noted: Ro25-6981-sensitive component, control slices 12.6±2.6%. On the procedure: Experiments were performed in a recording chamber on the stage of an Axioskop 2FS microscope with infrared DIC optics for visualizing whole-cell patch clamp recordings. EPSCs were recorded from layer II-III neurons using an Axon 200B amplifier (Axon Instruments, CA) and stimulations were delivered using a bipolar tungsten stimulating electrode placed in layer V of the ACC. In hippocampal slices, EPSCs were evoked by stimulating the Schaffer collateral-commissural pathway. EPSCs were induced by repetitive stimulations at 0.02 Hz and neurons were voltage clamped at −70 mV. The recording pipettes (3-5 MΩ) were filled with solution containing (mM) 145 K-gluconate, 5 NaCl, 1 MgCl2, 0.2 EGTA, 10 HEPES, 2 Mg-ATP, and 0.1 Na3-GTP (adjusted to pH 7.2 with KOH). After obtaining stable EPSCs for 10 min, three kinds of LTP induction paradigms were used within 12 min after establishing the whole-cell configuration to prevent wash out effect on LTP induction (Tsvetkov et al., 2002). The first protocol involved paired presynaptic 80 pulses at 2 Hz with postsynaptic depolarization at +30 mV (referred to as pairing training). […] The access resistance was 15-30 MΩ and was monitored throughout the experiment. […] Results are expressed as means±SEM. […]
NMDAR-mediated EPSCs were also recorded in neurons from electroporated ACC slices.

Data set [2] relates to NR2B siRNA electroporated ACC neurons. The experiment in a line: LTP in siRNA electroporated ACC neurons. On the procedure: Experiments were performed in a recording chamber on the stage of an Axioskop 2FS microscope with infrared DIC optics for visualizing whole-cell patch clamp recordings. EPSCs were recorded from layer II-III neurons using an Axon 200B amplifier (Axon Instruments, CA) and stimulations were delivered using a bipolar tungsten stimulating electrode placed in layer V of the ACC. In hippocampal slices, EPSCs were evoked by stimulating the Schaffer collateral-commissural pathway. EPSCs were induced by repetitive stimulations at 0.02 Hz and neurons were voltage clamped at −70 mV. The recording pipettes (3-5 MΩ) were filled with solution containing (mM) 145 K-gluconate, 5 NaCl, 1 MgCl2, 0.2 EGTA, 10 HEPES, 2 Mg-ATP, and 0.1 Na3-GTP (adjusted to pH 7.2 with KOH). After obtaining stable EPSCs for 10 min, three kinds of LTP induction paradigms were used within 12 min after establishing the whole-cell configuration to prevent wash out effect on LTP induction (Tsvetkov et al., 2002). The first protocol involved paired presynaptic 80 pulses at 2 Hz with postsynaptic depolarization at +30 mV (referred to as pairing training). The second involved paired 3 presynaptic stimuli that caused 3 EPSPs (10 ms ahead) with 3 postsynaptic APs at 30 Hz, paired 15 times every 5 s (named as EPSPs-APs protocol). The third involved theta-burst stimulation (5 trains of burst with 4 pulses at 100 Hz, at 200 ms interval; repeated 4 times at intervals of 10 s; named as TBS). The NMDAR-mediated component of EPSCs was pharmacologically isolated in Mg^2+-free ACSF containing: CNQX (20 μM), glycine (1 μM) and picrotoxin (100 μM). The patch electrodes contained (in mM) 102 cesium gluconate, 5 TEA-chloride, 3.7 NaCl, 11 BAPTA, 0.2 EGTA, 20 HEPES, 2 MgATP, 0.3 NaGTP, and 5 QX-314 chloride (adjusted to pH 7.2 with CsOH). Neurons were voltage clamped at −60 mV and NMDARs-mediated EPSCs were evoked at 0.05 Hz. Picrotoxin (100 μM) was always present to block GABAA receptor-mediated inhibitory synaptic currents. The access resistance was 15-30 MΩ and was monitored throughout the experiment. […] Results are expressed as means±SEM. […]

Take `C[C@@H](CN1CCC(Cc2ccccc2)CC1)[C@@H](O)c1ccc(O)cc1` [Ro25-6981]: the results for the “synaptic responses after pairing training (LTP), % of baseline” value in data set [1] (0.3 μM) and in data set [1] (3 μM) were 132.8±7.4% and 126.8±7.5%, respectively. In addition, the “effect on LTP induced by pairing training” value in data set [1] (0.3 μM) and in data set [1] (3 μM) was “partially depressed” each time.

Take “NR2B siRNA: siRNA corresponding to NR2B, sense 5′-GGAUGAGUCCUCCAUGUUCtt-3′, antisense 5′-GAACAUGGAGGACUCAUCCtt-3′, Silencer Pre-designed siRNA ID #61879, Ambion (sense GGAUGAGUCCUCCAUGUUCTT; antisense GAACAUGGAGGACUCAUCCTT; chemistry not given here)”: the “NR2B-mediated NMDA EPSCs, % of total NMDAR-mediated current” value with NR2B-mediated NMDA EPSCs is reported as 7.3±0.7%. In addition, the “LTP vs control siRNA electroporated neurons” value in data set [2] (FIG. 7D) was “Smaller LTP”. Moreover, the “potentiation (LTP) vs control siRNA electroporated neurons” value in data set [2] (TBS) and in data set [2] (pairing training protocol) was “significantly reduced” throughout.
